From patent US12662479B2 (Foghorn Therapeutics Inc., priority 2020, dated 2026)
Structures can show the parent of a compound that is named as a salt.

Legend:
[1] = molecular target: T1, HiBit-BRM fusion protein (Homo sapiens, UniProt P51531); assay: HiBiT-BRM cell-based degradation assay (Nano-Glo HiBiT Lytic Detection, 24 h); conditions: HeLa cells expressing HiBiT-BRM; for DC50: read-out: BRM HiBit Degradation IC50; for BRM HiBit Degradation Maximum measured: top dose 30 μM
T1 construct: expressed in transfected cells
Method in brief: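 HeLa cells stably expressing HiBiT-BRM were dosed with compounds (10-point 3-fold dilutions, 30 μM final top dose, duplicate) for 24 h. HiBiT signal was read by lytic LgBiT complementation luminescence. Percent degradation was normalised to DMSO (high control) and 2 μM of a reference BRM/BRG1 degrader (low control).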

[2] = molecular target: T2, HiBit-BRG1 fusion protein (Homo sapiens, UniProt P51532); assay: HiBiT-BRG1 cell-based degradation assay (Nano-Glo HiBiT Lytic Detection, 24 h); conditions: HeLa cells expressing HiBit-BRG1 and LgBit; for DC50: read-out: BRG1 HiBit Degradation IC50; for Dmax: HeLa, top dose 30 μM, read-out: BRG1 HiBit Degradation Maximum measured
T2 construct: expressed in transfected cells
Method in brief: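 Stable HeLa line expressing HiBiT-BRG1 and LgBiT, seeded at 5000 cells/well; luminescence read after lytic Nano-Glo HiBiT reagent and 10 min shaking at RT. % degradation normalised between DMSO (high control) and 2 μM reference BRM/BRG1 degrader (low control).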

T2 sequence (P51532 whole entry, the tested form may be a part): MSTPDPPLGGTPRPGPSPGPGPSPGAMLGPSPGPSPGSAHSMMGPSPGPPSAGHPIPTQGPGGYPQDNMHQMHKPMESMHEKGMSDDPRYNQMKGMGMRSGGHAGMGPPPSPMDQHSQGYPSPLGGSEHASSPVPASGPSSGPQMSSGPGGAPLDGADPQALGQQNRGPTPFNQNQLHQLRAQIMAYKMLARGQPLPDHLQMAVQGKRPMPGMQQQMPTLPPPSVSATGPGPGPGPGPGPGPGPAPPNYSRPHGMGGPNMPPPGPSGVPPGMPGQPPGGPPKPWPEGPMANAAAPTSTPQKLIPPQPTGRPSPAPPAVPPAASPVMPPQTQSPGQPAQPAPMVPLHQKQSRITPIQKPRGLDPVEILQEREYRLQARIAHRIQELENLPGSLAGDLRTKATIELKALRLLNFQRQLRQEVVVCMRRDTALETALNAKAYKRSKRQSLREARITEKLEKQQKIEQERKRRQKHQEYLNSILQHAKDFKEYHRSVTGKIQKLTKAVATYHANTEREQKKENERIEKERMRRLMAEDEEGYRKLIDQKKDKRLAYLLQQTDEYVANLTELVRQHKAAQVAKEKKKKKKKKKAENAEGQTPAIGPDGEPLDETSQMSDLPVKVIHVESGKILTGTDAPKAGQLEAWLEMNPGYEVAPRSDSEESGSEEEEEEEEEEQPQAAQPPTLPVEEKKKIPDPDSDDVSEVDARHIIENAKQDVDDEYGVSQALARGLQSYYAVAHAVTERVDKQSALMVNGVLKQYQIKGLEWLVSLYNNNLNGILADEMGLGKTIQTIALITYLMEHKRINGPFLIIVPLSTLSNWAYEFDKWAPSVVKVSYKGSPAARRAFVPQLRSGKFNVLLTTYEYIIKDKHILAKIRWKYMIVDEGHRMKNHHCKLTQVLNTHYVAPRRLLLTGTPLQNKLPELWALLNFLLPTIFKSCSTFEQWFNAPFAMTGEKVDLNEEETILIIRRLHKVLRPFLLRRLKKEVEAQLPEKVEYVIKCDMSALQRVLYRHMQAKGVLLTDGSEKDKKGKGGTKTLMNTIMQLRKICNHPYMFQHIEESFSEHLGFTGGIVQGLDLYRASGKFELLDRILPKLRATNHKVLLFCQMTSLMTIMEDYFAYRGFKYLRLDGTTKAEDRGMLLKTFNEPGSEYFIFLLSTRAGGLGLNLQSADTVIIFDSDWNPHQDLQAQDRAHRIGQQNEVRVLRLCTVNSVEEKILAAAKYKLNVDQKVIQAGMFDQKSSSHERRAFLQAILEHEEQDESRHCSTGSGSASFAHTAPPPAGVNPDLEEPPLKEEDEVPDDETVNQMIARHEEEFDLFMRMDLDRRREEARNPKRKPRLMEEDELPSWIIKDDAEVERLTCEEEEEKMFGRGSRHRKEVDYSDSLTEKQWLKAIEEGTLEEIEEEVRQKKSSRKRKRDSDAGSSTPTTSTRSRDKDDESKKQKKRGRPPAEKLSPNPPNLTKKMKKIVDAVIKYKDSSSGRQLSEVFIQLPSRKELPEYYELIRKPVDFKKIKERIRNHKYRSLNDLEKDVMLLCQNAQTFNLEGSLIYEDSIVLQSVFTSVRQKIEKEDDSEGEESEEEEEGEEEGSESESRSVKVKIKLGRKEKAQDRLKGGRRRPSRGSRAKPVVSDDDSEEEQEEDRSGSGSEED
T1 sequence (P51531 whole entry, the tested form may be a part): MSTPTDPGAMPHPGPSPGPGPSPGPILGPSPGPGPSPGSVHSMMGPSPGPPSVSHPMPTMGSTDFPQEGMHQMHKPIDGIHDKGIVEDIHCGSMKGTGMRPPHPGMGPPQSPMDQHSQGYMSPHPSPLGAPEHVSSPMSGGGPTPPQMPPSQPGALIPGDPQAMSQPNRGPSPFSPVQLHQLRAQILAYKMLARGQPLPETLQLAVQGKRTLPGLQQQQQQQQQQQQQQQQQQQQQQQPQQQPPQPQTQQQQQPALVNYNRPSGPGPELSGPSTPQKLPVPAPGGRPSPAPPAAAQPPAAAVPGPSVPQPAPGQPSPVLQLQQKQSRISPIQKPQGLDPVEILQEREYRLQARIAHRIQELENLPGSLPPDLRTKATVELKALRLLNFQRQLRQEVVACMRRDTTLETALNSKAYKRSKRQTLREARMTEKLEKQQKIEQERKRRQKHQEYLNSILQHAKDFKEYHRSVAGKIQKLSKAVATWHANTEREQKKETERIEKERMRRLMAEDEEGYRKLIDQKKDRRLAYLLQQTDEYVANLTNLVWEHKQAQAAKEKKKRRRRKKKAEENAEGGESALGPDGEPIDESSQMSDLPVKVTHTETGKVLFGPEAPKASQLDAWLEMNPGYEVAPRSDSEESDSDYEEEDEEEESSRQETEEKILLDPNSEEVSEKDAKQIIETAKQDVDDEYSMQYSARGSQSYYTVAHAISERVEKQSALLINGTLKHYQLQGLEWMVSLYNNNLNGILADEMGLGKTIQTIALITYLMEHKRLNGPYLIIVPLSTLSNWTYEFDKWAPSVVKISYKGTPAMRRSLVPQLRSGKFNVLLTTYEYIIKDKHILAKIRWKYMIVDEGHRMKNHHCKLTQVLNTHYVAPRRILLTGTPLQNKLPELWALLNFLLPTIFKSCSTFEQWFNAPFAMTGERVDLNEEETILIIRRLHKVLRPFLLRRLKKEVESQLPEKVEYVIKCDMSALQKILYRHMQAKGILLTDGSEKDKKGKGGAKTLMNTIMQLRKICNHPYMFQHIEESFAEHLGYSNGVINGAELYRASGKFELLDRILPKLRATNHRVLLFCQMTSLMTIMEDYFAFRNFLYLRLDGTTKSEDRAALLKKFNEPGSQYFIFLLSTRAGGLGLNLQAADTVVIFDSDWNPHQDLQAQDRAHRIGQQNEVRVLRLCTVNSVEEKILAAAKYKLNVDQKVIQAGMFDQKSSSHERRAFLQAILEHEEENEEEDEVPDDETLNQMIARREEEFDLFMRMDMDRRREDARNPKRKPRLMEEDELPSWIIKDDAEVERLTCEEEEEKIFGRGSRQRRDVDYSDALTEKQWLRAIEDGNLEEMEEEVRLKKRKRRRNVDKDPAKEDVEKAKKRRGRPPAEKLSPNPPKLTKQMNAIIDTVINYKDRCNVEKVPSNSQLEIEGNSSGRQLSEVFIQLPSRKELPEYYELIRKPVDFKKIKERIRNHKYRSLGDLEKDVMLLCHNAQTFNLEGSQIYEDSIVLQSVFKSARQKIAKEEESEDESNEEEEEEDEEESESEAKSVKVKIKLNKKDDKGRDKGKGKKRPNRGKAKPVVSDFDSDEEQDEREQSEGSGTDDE

Compound | DC50 [1] [µM] | BRM HiBit Degradation Maximum measured [1] | DC50 [2] [µM] | Dmax [2] [%]
CS(=O)(=O)n1ccc(C(=O)NCC(=O)Nc2nc(-c3cccc(-c4ccnc(OCCNC(=O)C5CC5CNC(=O)COc5ccc6c(c5)C(=O)N(C5CCC(=O)NC5=O)C6=O)c4)c3)cs2)c1 (stereo not drawn) [Compound 80, N-[2-[[4-[3-[2-[2-[[2-[[[2-[2-(2,6-dioxo-3-piperidyl)-1,3-dioxoisoindolin-5-yl]oxyacetyl]amino]methyl]cyclopropanecarbonyl]amino]ethoxy]-4-pyridyl]phenyl]thiazol-2-yl]amino]-2-oxoethyl]-1-methylsulfonyl-pyrrole-3-carboxamide] | > 10 | C (‘C’ = Maximum degradation <50%) | > 10 | < 50
CS(=O)(=O)n1ccc(C(=O)NCC(=O)Nc2nc(-c3cccc(-c4ccnc(OCCNC(=O)CCCOc5cccc6c5C(=O)N(C5CCC(=O)NC5=O)C6=O)c4)c3)cs2)c1 (stereo not drawn) [Compound 36, N-[2-[[4-[3-[2-[2-[4-[2-(2,6-dioxo-3-piperidyl)-1,3-dioxo-isoindolin-4-yl]oxybutanoylamino]ethoxy]-4-pyridyl]phenyl]thiazol-2-yl]amino]-2-oxo-ethyl]-1-methylsulfonyl-pyrrole-3-carboxamide] | > 10 | C (‘C’ = Maximum degradation <50%) | > 10 | < 50
CS(=O)(=O)n1ccc(C(=O)NCC(=O)Nc2nc(-c3cccc(-c4ccn(CC(=O)NCCOCCOCCNc5cccc6c5C(=O)N(C5CCC(=O)NC5=O)C6=O)n4)c3)cs2)c1 (stereo not drawn) [Compound 3, N-[2-[[4-[3-[1-[2-[2-[2-[2-[[2-(2,6-dioxo-3-piperidyl)-1,3-dioxoisoindolin-4-yl]amino]ethoxy]ethoxy]ethylamino]-2-oxo-ethyl]pyrazol-3-yl]phenyl]thiazol-2-yl]amino]-2-oxo-ethyl]-1-methylsulfonyl-pyrrole-3-carboxamide] | > 10 | C (‘C’ = Maximum degradation <50%) | > 10 | < 50
CS(=O)(=O)n1ccc(C(=O)N[C@@H](CCOCCCC(=O)NCCOc2ccc3c(c2)C(=O)N(C2CCC(=O)NC2=O)C3=O)C(=O)Nc2nc(-c3ccccc3)cs2)c1 (stereo partly drawn) [Compound 280, (2S)-4-[3-[(2-[[2-(2,6-dioxopiperidin-3-yl)-1,3-dioxoisoindol-5-yl]oxy]ethyl)carbamoyl]propoxy]-2-[(1-methanesulfonylpyrrol-3-yl)formamido]-N-(4-phenyl-1,3-thiazol-2-yl)butanamide] | > 10 | C (‘C’ = Maximum degradation <50%) | > 10 | < 50
CS(=O)(=O)n1ccc(C(=O)N[C@@H](COCc2ccc(C(=O)NCCNc3ccc4c(c3)C(=O)N(C3CCC(=O)NC3=O)C4=O)cc2)C(=O)Nc2nc(-c3ccccc3)cs2)c1 (stereo partly drawn) [Compound 240, N-(2-[[2-(2,6-dioxopiperidin-3-yl)-1,3-dioxoisoindol-5-yl]amino]ethyl)-4-[[(2S)-2-[(1-methanesulfonylpyrrol-3-yl)formamido]-2-[(4-phenyl-1,3-thiazol-2-yl)carbamoyl]ethoxy]methyl]benzamide] | > 10 | C (‘C’ = Maximum degradation <50%) | > 10 | < 50
CS(=O)(=O)n1ccc(C(=O)N[C@@H](CCOCCCC(=O)NCCOCCOCCNC(=O)COc2cccc3c2C(=O)N(C2CCC(=O)NC2=O)C3=O)C(=O)Nc2nc(-c3ccccc3)cs2)c1 (stereo partly drawn) [Compound 223, (2S)-4-[3-[(2-[2-[2-(2-[[2-(2,6-dioxopiperidin-3-yl)-1,3-dioxoisoindol-4-yl]oxy]acetamido)ethoxy]ethoxy]ethyl)carbamoyl]propoxy]-2-[(1-methanesulfonylpyrrol-3-yl)formamido]-N-(4-phenyl-1,3-thiazol-2-yl)butanamide] | > 10 | C (‘C’ = Maximum degradation <50%) | > 10 | < 50
CS(=O)(=O)n1ccc(C(=O)N[C@@H](COCc2ccc(C(=O)NCCCCCCNc3ccc4c(c3)C(=O)N(C3CCC(=O)NC3=O)C4=O)cc2)C(=O)Nc2nc(-c3ccccc3)cs2)c1 (stereo partly drawn) [Compound 201, N-(6-[[2-(2,6-dioxopiperidin-3-yl)-1,3-dioxoisoindol-5-yl]amino]hexyl)-4-[[(2S)-2-[(1-methanesulfonylpyrrol-3-yl)formamido]-2-[(4-phenyl-1,3-thiazol-2-yl)carbamoyl]ethoxy]methyl]benzamide] | 0.1 to 1 | A (‘A’ = Maximum degradation >75%) | < 0.1 | > 75
CS(=O)(=O)n1ccc(C(=O)NCC(=O)Nc2nc(-c3cccc(-c4ccnc(C5(C(=O)NC6CCN(CCCCOc7ccc8c(c7)C(=O)N(C7CCC(=O)NC7=O)C8=O)CC6)CC5)c4)c3)cs2)c1 (stereo not drawn) [Compound 140, N-[1-(4-[[2-(2,6-dioxopiperidin-3-yl)-1,3-dioxoisoindol-5-yl]oxy]butyl)piperidin-4-yl]-1-[4-[3-(2-[2-[(1-methanesulfonylpyrrol-3-yl)formamido]acetamido]-1,3-thiazol-4-yl)phenyl]pyridin-2-yl]cyclopropane-1-carboxamide] | 0.1 to 1 | A (‘A’ = Maximum degradation >75%) | 0.1 to 1 | > 75
CS(=O)(=O)n1ccc(C(=O)N[C@@H](CCOCCCC(=O)NCCOCc2cccc(COCCOc3ccc4c(c3)C(=O)N(C3CCC(=O)NC3=O)C4=O)c2)C(=O)Nc2nc(-c3ccccc3)cs2)c1 (stereo partly drawn) [Compound 261, (2S)-4-(3-[[2-([3-[(2-[[2-(2,6-dioxopiperidin-3-yl)-1,3-dioxoisoindol-5-yl]oxy]ethoxy)methyl]phenyl]methoxy)ethyl]carbamoyl]propoxy)-2-[(1-methanesulfonylpyrrol-3-yl)formamido]-N-(4-phenyl-1,3-thiazol-2-yl)butanamide] | > 10 | C (‘C’ = Maximum degradation <50%) | > 10 | < 50
CS(=O)(=O)n1ccc(C(=O)N[C@@H](CCOCCCC(=O)N2CCC(CCCCN3CCN(c4ccc5c(c4)C(=O)N(C4CCC(=O)NC4=O)C5=O)CC3)CC2)C(=O)Nc2nc(-c3ccccc3)cs2)c1 (stereo partly drawn) [Compound 257] | > 10 | C (‘C’ = Maximum degradation <50%) | > 10 | < 50
CS(=O)(=O)n1ccc(C(=O)N[C@@H](COCCCC(=O)NCCCCCCCCNc2cccc3c2C(=O)N(C2CCC(=O)NC2=O)C3=O)C(=O)Nc2nc(-c3ccccc3)cs2)c1 (stereo partly drawn) [Compound 186, N-(8-[[2-(2,6-dioxopiperidin-3-yl)-1,3-dioxoisoindol-4-yl]amino]octyl)-4-[(2S)-2-[(1-methanesulfonylpyrrol-3-yl)formamido]-2-[(4-phenyl-1,3-thiazol-2-yl)carbamoyl]ethoxy]butanamide] | > 10 | C (‘C’ = Maximum degradation <50%) | > 10 | < 50
CS(=O)(=O)n1ccc(C(=O)N[C@@H](COCc2ccc(C(=O)NCCOCCOCCNC(=O)COc3ccc4c(c3)C(=O)N(C3CCC(=O)NC3=O)C4=O)cc2)C(=O)Nc2nc(-c3ccccc3)cs2)c1 (stereo partly drawn) [Compound 203, (2S)-3-([4-[(2-[2-[2-(2-[[2-(2,6-dioxopiperidin-3-yl)-1,3-dioxoisoindol-5-yl]oxy]acetamido)ethoxy]ethoxy]ethyl)carbamoyl]phenyl]methoxy)-2-[(1-methanesulfonylpyrrol-3-yl)formamido]-N-(4-phenyl-1,3-thiazol-2-yl)propanamide] | > 10 | C (‘C’ = Maximum degradation <50%) | > 10 | < 50
CS(=O)(=O)n1ccc(C(=O)NCC(=O)Nc2nc(C3CCCN(C(=O)CCN4CCN(c5ccc6c(c5)C(=O)N(C5CCC(=O)NC5=O)C6=O)CC4)C3)cs2)c1 (stereo not drawn) [Compound 146, N-{4-[1-(3-{4-[2-(2,6-dioxopiperidin-3-yl)-1,3-dioxo-2,3-dihydro-1H-isoindol-5-yl]piperazin-1-yl}propanoyl)piperidin-3-yl]-1,3-thiazol-2-yl}-2-[(1-methanesulfonyl-1H-pyrrol-3-yl)formamido]acetamide formate] | > 10 | C (‘C’ = Maximum degradation <50%) | > 10 | < 50
Cc1ncsc1-c1ccc(CNC(=O)[C@@H]2C[C@@H](O)CN2C(=O)[C@@H](NC(=O)CCCCCCCC(=O)NCc2cccc(-c3cccc(-c4csc(NC(=O)CNC(=O)c5ccn(S(C)(=O)=O)c5)n4)c3)c2)C(C)(C)C)cc1 [Compound 49, N1-((S)-1-((2S,4R)-4-hydroxy-2-((4-(4-methylthiazol-5-yl)benzyl)carbamoyl)pyrrolidin-1-yl)-3,3-dimethyl-1-oxobutan-2-yl)-N9-((3′-(2-(2-(1-(methylsulfonyl)-1H-pyrrole-3-carboxamido)acetamido)thiazol-4-yl)-[1,1′-biphenyl]-3-yl)methyl)nonanediamide] | < 0.1 | A (‘A’ = Maximum degradation >75%) | < 0.1 | > 75
CS(=O)(=O)n1ccc(C(=O)NCC(=O)Nc2nc(C3CCCN(C(=O)CCCCCCCCCCNc4ccc5c(c4)C(=O)N(C4CCC(=O)NC4=O)C5=O)C3)cs2)c1 (stereo not drawn) [Compound 143, N-{4-[1-(11-{[2-(2,6-dioxopiperidin-3-yl)-1,3-dioxo-2,3-dihydro-1H-isoindol-5-yl]amino}undecanoyl)piperidin-3-yl]-1,3-thiazol-2-yl}-2-[(1-methanesulfonyl-1H-pyrrol-3-yl)formamido]acetamide] | > 10 | C (‘C’ = Maximum degradation <50%) | > 10 | < 50
